Results published in patent US12397056B2, “System for inducing sonoporation of a drug into cancer cells and method thereof” (Freedom Waves S.R.L, priority 2018, dated 2025).
Entries after “also recorded” stand apart in the source; their conditions may differ.

What was measured:
Format in all cases: cell-based
[1] = test system: MCF-7: human breast ductal carcinoma; assay: Cell death of MCF-7 cells after drug with or without pLINFU sonoporation
Protocol: (§1) The system of the present invention was tested in vitro using two cellular lines of human breast cancer and one cellular line of human pancreatic adenocarcinoma. In particular the following cellular lines were employed: • MCF-7: human breast ductal carcinoma; • MDA-MB-231: estrogen independent human breast adenocarcinoma; • MiaPaCa-2: human pancreatic adenocarcinoma.
(§2) For each combination the percentage of cell death was measured in three main experimental conditions: • administration of the drug (hereinafter named “NO-US” condition); • administration of the drug and simultaneous administration of non focalized pulsed low-intensity ultrasound with a frequency of 1 MHz and a period of 1 second, said drug being administered in a unique dose; • 1 administration of non focalized pulsed low-intensity ultrasound with a frequency of 1 MHz and a period of 1 second, followed by administration of the drug; and • administration of the drug and simultaneous administration of non focalized pulsed low-intensity ultrasound with a frequency of 1 MHz and a period of 1 second, said drug being administered in two doses of equal concentration (hereinafter termed “US-DC” condition).
(§3) All the experimental conditions, other than NO-US, were replicated for different values of duty cycle and each experimental condition were replicated for three different total concentrations of drugs. Several operation times were also tested for each cellular lines and for each type of drug.

[2] = test system: MDA-MB-231: estrogen independent human breast adenocarcinoma; assay: Cell death of MDA-MB-231 cells after drug with or without pLINFU sonoporation
Protocol: as §1, §2, §3

[3] = test system: human pancreatic adenocarcinoma cells; assay: Internalization of fluoresceinamine (FA) into cancer cells (FIG. 7, CLSM)
Source text: This example is relative to an experiment of internalization of a fluoresceinamine (FA). […] The tested experimental condition are: • FA-NO-US-NO DRUG: administration of FA alone, without administration of any drug and without administration of ultrasounds; • FA-LI-NO-US: administration of FA and liposomal irinotecan (LI), without administration of ultrasounds; • US-DC=12%: administration of FA and liposomal irinotecan (LI), with the simultaneous administration of pLINFUs with a duty cycle of 12%; • US-PRE-DC=1%: administration of pLINFUs with a duty cycle of 1% followed by subsequent administration of FA and liposomal irinotecan (LI); and • US-DC=1%: administration of FA and liposomal irinotecan (LI), with the simultaneous administration of pLINFUs with a duty cycle of 1%.
In FIG. 7, it is graphically represented the FA Internalization (%), i.e. the percentage of FA measured after the removal of the […] liquid from the cell culture wells, i.e. the percentage of FA inside the cell. The results of the experiment of this example were also analyzed by Confocal Laser Scanning Microscopy (CLSM) after 2 hours of incubation. FIGS. 8a, 8b, 8c, 8d, 8e show the intake of the FA into human pancreatic adenocarcinoma cells, in the five aforementioned experimental conditions.
It can be explained with a greater chemical interaction between the polymeric chains of polyethylene glycol of the liposomal membrane and the FA.

[4] = test system: MiaPaCa-2: human pancreatic adenocarcinoma; assay: Cell death of MiaPaCa-2 cells after drug with or without pLINFU sonoporation; settings: MiaPaCa2
Protocol: as §1, §2, §3

[5] = total concentration 100 μg/ml, NO-US (no ultrasound)
[6] = total concentration 100 μg/ml, US-DC = 9%
[7] = total concentration 100 μg/ml, US-DC = 9% (pLINFU 1 MHz, 20 s + 20 s)
[8] = total concentration 100 μg/ml, US-DC = 12%
[9] = total concentration 100 μg/ml, US-DC = 12% (pLINFU 1 MHz, 20 s + 20 s)
[10] = total concentration 500 μg/ml, NO-US (no ultrasound)
[11] = total concentration 500 μg/ml, US-DC = 9%
[12] = total concentration 500 μg/ml, US-DC = 9% (pLINFU 1 MHz, 20 s + 20 s)
[13] = total concentration 500 μg/ml, US-DC = 12%
[14] = total concentration 500 μg/ml, US-DC = 12% (pLINFU 1 MHz, 20 s + 20 s)
[15] = total concentration 1000 μg/ml, US-DC = 9%
[16] = total concentration 1000 μg/ml, US-DC = 9% (pLINFU 1 MHz, 20 s + 20 s)
[17] = total concentration 1000 μg/ml, US-DC = 12%
[18] = total concentration 0.5 μM, NO-US (no ultrasound)
[19] = total concentration 0.5 μM, US-DC = 12%
[20] = total concentration 0.5 μM, US-DC = 12% (pLINFU 1 MHz, 20 s + 20 s)
[21] = total concentration 10 μM, NO-US (no ultrasound)
[22] = total concentration 10 μM, US-DC = 12%
[23] = total concentration 10 μM, US-DC = 12% (pLINFU 1 MHz, 20 s + 20 s)
[24] = total concentration 50 μM, NO-US (no ultrasound)
[25] = total concentration 50 μM, US-DC = 12%
[26] = total concentration 50 μM, US-DC = 12% (pLINFU 1 MHz, 20 s + 20 s)
[27] = total concentration 0.5 μM, US-DC = 9%
[28] = total concentration 0.5 μM, US-DC = 9% (pLINFU 1 MHz, 20 s + 20 s)
[29] = total concentration 10 μM, US-DC = 9%
[30] = total concentration 10 μM, US-DC = 9% (pLINFU 1 MHz, 20 s + 20 s)
[31] = total concentration 50 μM, US-DC = 9%
[32] = total concentration 50 μM, US-DC = 9% (pLINFU 1 MHz, 20 s + 20 s)

SMILES: COc1cccc2c1C(=O)c1c(O)c3c(c(O)c1C2=O)C[C@@](O)(C(=O)CO)C[C@@H]3O[C@H]1C[C@H](N)[C@H](O)[C@H](C)O1 [Doxorubicin]
- Cell Death % [1, 5]: 17.1%
- Increasing % vs NO-US [1, 6]: +74.4%
- Cell Death % [1, 7]: 29.8%
- Increasing % vs NO-US [1, 8]: +64.9%
- Cell Death % [1, 9]: 28.2%
- Cell Death % [1, 10]: 23.3%
- Increasing % vs NO-US [1, 11]: +102.5%
- Cell Death % [1, 12]: 47.2%
- Increasing % vs NO-US [1, 13]: +114.2%
- Cell Death % [1, 14]: 49.9%
- Cell Death % ([1]; total concentration 1000 μg/ml, NO-US (no ultrasound)): 59%
- Increasing % vs NO-US [1, 15]: +19.7%
- Cell Death % [1, 16]: 70.6%^
- Increasing % vs NO-US [1, 17]: +39%
- Cell Death % ([1]; total concentration 1000 μg/ml, US-DC = 12% (pLINFU 1 MHz, 20 s + 20 s)): 82%
- Cell Death % [2, 5]: 10.9%
- Increasing % vs NO-US [2, 6]: +116%
- Cell Death % [2, 7]: 23.5%
- Increasing % vs NO-US [2, 8]: +11.8%
- Cell Death % [2, 9]: 12%
- Cell Death % [2, 10]: 22.8%
- Increasing % vs NO-US [2, 11]: +70.5%
- Cell Death % [2, 12]: 38.8%
- Increasing % vs NO-US [2, 13]: +18.4%
- Cell Death % [2, 14]: 27%
- Increasing % vs NO-US [2, 15]: +11.1%
- Cell Death % [2, 16]: 60.5%
- Increasing % vs NO-US [2, 17]: +0.3%

SMILES: Nc1ccc2c(c1)C(=O)OC21c2ccc(O)cc2Oc2cc(O)ccc21 [FA, fluoresceinamine]
- intake of the FA into cells (CLSM) ([3]; FA-LI-NO-US: FA with liposomal irinotecan, no ultrasound, FIG. 8b): greater fluorescence density is observed, but only at an extracellular perimembrane level
- intake of the FA into cells (CLSM) ([3]; FA-NO-US-NO DRUG: FA alone, no drug, no ultrasound, 2 hours incubation, FIG. 8a): not accumulated in the cells
- FA Internalization (%) ([3]; US-DC=1% compared with the other four conditions, FIG. 7): higher FA internalization %
- intake of the FA into cells (CLSM) ([3]; US-DC=1%: FA with liposomal irinotecan, simultaneous pLINFU duty cycle 1%, FIG. 8e): highest level of FA internalization
- intake of the FA into cells (CLSM) ([3]; US-DC=12%: FA with liposomal irinotecan, simultaneous pLINFU duty cycle 12%, FIG. 8c): the presence of FA inside the cells became evident
- intake of the FA into cells (CLSM) ([3]; US-PRE-DC=1%: pLINFU duty cycle 1% followed by FA and liposomal irinotecan, FIG. 8d): the presence of FA inside the cells became evident; also recorded: a certain grade of FA internalization is achieved

SMILES: CCc1c2c(nc3ccc(OC(=O)N4CCC(N5CCCCC5)CC4)cc13)-c1cc3c(c(=O)n1C2)COC(=O)[C@]3(O)CC [Irinotecan]
- Cell Death % ([4]; total concentration 0.05 μM, NO-US (no ultrasound)): 11.5%
- Increasing % vs NO-US ([4]; total concentration 0.05 μM, US-DC = 1%): +120.8%
- Cell Death % ([4]; total concentration 0.05 μM, US-DC = 1% (pLINFU 1 MHz, 20 s + 20 s)): 25.4%
- Increasing % vs NO-US ([4]; total concentration 0.05 μM, US-DC = 12%): +60.6%
- Cell Death % ([4]; total concentration 0.05 μM, US-DC = 12% (pLINFU 1 MHz, 20 s + 20 s)): 18.5%
- Cell Death % ([4]; total concentration 1 μM, NO-US (no ultrasound)): 21.1%
- Increasing % vs NO-US ([4]; total concentration 1 μM, US-DC = 1%): +62.9%
- Cell Death % ([4]; total concentration 1 μM, US-DC = 1% (pLINFU 1 MHz, 20 s + 20 s)): 34.3%
- Increasing % vs NO-US ([4]; total concentration 1 μM, US-DC = 12%): +42.5%
- Cell Death % ([4]; total concentration 1 μM, US-DC = 12% (pLINFU 1 MHz, 20 s + 20 s)): 30%
- Cell Death % ([4]; total concentration 50 μM (irinotecan series), NO-US (no ultrasound)): 56.7%
- Increasing % vs NO-US ([4]; total concentration 50 μM (irinotecan series), US-DC = 1%): +31.1%
- Cell Death % ([4]; total concentration 50 μM (irinotecan series), US-DC = 1% (pLINFU 1 MHz, 20 s + 20 s)): 74.3%
- Increasing % vs NO-US ([4]; total concentration 50 μM (irinotecan series), US-DC = 12%): +16.5%
- Cell Death % ([4]; total concentration 50 μM (irinotecan series), US-DC = 12% (pLINFU 1 MHz, 20 s + 20 s)): 66%

SMILES: CC(=O)O[C@H]1C(=O)[C@@]2(C)[C@H]([C@H](OC(=O)c3ccccc3)[C@]3(O)C[C@H](OC(=O)[C@H](O)[C@@H](NC(=O)c4ccccc4)c4ccccc4)C(C)=C1C3(C)C)[C@]1(OC(C)=O)CO[C@@H]1C[C@@H]2O [Paclitaxel]
- Cell Death % [4, 18]: 45.5%
- Increasing % vs NO-US ([4]; total concentration 0.5 μM, US-DC = 1%): 40.1%
- Cell Death % ([4]; total concentration 0.5 μM, US-DC = 1% (pLINFU 1 MHz, 20 s + 20 s)): 22.7%
- Increasing % vs NO-US [4, 19]: 17.1%
- Cell Death % [4, 20]: 12.7%
- Cell Death % [4, 21]: 65.3%
- Increasing % vs NO-US ([4]; total concentration 10 μM, US-DC = 1%): +22.7%
- Cell Death % ([4]; total concentration 10 μM, US-DC = 1% (pLINFU 1 MHz, 20 s + 20 s)): 12.8%
- Increasing % vs NO-US [4, 22]: +12.7%
- Cell Death % [4, 23]: 9.2%
- Cell Death % [4, 24]: 80.2%
- Increasing % vs NO-US ([4]; total concentration 50 μM, US-DC = 1%): +12.8%
- Cell Death % ([4]; total concentration 50 μM, US-DC = 1% (pLINFU 1 MHz, 20 s + 20 s)): 90.5%
- Increasing % vs NO-US [4, 25]: +9.2%
- Cell Death % [4, 26]: 87.6%
- Cell Death % [1, 18]: 1.0%
- Increasing % vs NO-US [1, 27]: +807.5%
- Cell Death % [1, 28]: 9.1%
- Increasing % vs NO-US [1, 19]: +242.5%
- Cell Death % [1, 20]: 3.4%
- Cell Death % [1, 21]: 4.1%
- Increasing % vs NO-US [1, 29]: +484.7%
- Cell Death % [1, 30]: 24%
- Increasing % vs NO-US [1, 22]: +221.6%
- Cell Death % [1, 23]: 13.2%
- Cell Death % [1, 24]: 7.2%
- Increasing % vs NO-US [1, 31]: +354.2%
- Cell Death % [1, 32]: 32.7%
- Increasing % vs NO-US [1, 25]: +147.3%
- Cell Death % [1, 26]: 17.8%
- Cell Death % [2, 18]: 6.4%
- Increasing % vs NO-US [2, 27]: +76.6%
- Cell Death % [2, 28]: 11.3%
- Increasing % vs NO-US [2, 19]: −7.8%
- Cell Death % [2, 20]: 5.9%
- Cell Death % [2, 21]: 6.4%
- Increasing % vs NO-US [2, 29]: +128.4%
- Cell Death % [2, 30]: 14.7%
- Increasing % vs NO-US [2, 22]: +15%
- Cell Death % [2, 23]: 7.4%
- Cell Death % [2, 24]: 7.9%
- Increasing % vs NO-US [2, 31]: +221.9%
- Cell Death % [2, 32]: 25.5%
- Increasing % vs NO-US [2, 25]: +55.3%
- Cell Death % [2, 26]: 12.3%
